As usually defined, the AC50 is the concentration giving half of the maximal activity seen. High values mean weaker potency, low ones greater potency.

Some results are limits rather than exact numbers.

These results are taken from ChEMBL document CHEMBL5291721, “A preclinical secondary pharmacology resource illuminates target-adverse drug reaction associations of marketed drugs” (Nat Commun, 2023).

Among the targets are Histamine H3 receptor (Homo sapiens, UniProt Q9Y5N1); Vasopressin V1a receptor (Homo sapiens, UniProt P37288); Histamine H1 receptor (Homo sapiens, UniProt P35367); Vasopressin V2 receptor (Homo sapiens, UniProt P30518); Adenosine receptor A2a (Homo sapiens, UniProt P29274).
Assay [1] addresses T1, Alpha-2A adrenergic receptor (Homo sapiens, UniProt P08913).
T1 sequence (P08913 whole entry): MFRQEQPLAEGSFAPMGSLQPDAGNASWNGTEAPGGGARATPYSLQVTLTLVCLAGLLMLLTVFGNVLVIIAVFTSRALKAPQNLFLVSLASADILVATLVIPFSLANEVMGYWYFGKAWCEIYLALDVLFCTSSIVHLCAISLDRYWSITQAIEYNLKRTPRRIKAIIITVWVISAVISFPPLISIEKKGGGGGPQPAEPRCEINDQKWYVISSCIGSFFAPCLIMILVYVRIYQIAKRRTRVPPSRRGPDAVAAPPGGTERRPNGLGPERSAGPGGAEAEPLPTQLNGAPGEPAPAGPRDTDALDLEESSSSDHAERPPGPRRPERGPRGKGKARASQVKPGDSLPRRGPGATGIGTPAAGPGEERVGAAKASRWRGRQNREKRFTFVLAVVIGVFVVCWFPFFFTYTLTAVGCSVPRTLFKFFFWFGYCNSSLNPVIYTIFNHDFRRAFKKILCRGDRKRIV
Type of assay: functional, cell-based.

Assay [2] deals with Gamma-aminobutyric acid receptor subunit alpha-1 (Rattus norvegicus, UniProt P62813). Type of assay: functional.
Sequence of Gamma-aminobutyric acid receptor subunit alpha-1 (P62813 whole entry): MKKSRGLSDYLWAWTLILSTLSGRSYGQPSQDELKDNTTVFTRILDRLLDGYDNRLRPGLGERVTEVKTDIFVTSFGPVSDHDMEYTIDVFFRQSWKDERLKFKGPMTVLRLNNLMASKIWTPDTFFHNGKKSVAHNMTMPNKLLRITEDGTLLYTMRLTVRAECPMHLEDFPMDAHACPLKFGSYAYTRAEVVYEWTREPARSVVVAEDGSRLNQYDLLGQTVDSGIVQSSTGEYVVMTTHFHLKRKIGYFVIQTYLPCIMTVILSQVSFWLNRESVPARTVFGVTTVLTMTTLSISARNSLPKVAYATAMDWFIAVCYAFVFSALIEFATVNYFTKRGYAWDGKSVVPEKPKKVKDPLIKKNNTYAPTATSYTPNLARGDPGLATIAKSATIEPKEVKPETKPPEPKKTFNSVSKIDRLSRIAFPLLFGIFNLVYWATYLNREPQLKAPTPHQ
A further assay addresses Mu-type opioid receptor (Homo sapiens, UniProt P35372). The assay is described as follows: biochemical. The assay is classed as functional.
Assay [3] deals with Sodium-dependent noradrenaline transporter (Homo sapiens, UniProt P23975).
Sequence of Sodium-dependent noradrenaline transporter (P23975 whole entry): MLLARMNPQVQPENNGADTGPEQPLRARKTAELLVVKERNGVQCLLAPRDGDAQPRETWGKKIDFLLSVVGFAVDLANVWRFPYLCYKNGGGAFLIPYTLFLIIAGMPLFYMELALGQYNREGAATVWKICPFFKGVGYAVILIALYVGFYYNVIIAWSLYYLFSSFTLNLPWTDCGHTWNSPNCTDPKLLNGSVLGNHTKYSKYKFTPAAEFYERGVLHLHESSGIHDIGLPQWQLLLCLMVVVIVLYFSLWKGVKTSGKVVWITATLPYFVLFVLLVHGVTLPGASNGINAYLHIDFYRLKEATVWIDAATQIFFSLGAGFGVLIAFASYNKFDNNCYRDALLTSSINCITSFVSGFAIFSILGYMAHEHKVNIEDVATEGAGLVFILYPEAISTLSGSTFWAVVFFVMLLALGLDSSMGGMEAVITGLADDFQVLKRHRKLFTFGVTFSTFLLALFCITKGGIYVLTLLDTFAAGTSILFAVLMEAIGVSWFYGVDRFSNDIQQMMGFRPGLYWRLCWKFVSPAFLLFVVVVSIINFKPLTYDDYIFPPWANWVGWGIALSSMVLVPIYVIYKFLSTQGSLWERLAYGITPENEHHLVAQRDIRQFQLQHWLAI
The target in assay [4] is Kappa-type opioid receptor (Homo sapiens, UniProt P41145).
Sequence of Kappa-type opioid receptor (P41145 whole entry): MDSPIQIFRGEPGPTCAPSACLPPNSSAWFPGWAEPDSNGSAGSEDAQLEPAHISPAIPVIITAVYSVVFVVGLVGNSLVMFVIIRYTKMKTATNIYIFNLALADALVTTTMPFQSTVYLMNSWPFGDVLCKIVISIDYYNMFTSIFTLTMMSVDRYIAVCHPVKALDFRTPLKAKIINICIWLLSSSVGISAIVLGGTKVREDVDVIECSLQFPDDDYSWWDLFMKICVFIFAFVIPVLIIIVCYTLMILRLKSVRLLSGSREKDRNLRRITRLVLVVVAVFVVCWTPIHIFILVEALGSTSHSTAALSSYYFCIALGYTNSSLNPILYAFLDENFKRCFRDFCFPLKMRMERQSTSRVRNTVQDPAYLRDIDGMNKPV
A further assay has as its target T2, B2 bradykinin receptor (Homo sapiens, UniProt P30411).
T2 sequence (P30411 whole entry): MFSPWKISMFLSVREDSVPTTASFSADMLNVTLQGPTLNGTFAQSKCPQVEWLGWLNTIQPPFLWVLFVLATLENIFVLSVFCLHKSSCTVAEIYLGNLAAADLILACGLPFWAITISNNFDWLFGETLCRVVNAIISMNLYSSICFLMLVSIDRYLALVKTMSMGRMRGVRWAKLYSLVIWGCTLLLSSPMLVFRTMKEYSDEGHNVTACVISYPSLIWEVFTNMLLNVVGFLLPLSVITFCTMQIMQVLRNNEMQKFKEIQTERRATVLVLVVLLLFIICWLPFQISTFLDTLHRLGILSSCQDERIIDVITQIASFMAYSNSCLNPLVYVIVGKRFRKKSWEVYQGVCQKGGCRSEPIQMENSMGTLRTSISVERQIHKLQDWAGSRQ

The next assay addresses T3, Adenosine receptor A1 (Homo sapiens, UniProt P30542).
T3 sequence (P30542 whole entry): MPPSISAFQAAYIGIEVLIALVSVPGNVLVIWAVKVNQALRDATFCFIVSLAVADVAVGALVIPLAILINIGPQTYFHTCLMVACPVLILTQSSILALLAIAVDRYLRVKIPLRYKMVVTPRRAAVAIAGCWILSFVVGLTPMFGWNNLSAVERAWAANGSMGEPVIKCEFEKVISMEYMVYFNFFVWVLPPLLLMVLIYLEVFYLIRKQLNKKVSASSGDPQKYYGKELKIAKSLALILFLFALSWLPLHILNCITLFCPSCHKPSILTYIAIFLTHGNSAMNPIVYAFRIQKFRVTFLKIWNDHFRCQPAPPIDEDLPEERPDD

For assay [5], the target named is T4, 5-hydroxytryptamine receptor 2B (Homo sapiens, UniProt P41595). Type of assay: functional, cell-based.
T4 sequence (P41595 whole entry): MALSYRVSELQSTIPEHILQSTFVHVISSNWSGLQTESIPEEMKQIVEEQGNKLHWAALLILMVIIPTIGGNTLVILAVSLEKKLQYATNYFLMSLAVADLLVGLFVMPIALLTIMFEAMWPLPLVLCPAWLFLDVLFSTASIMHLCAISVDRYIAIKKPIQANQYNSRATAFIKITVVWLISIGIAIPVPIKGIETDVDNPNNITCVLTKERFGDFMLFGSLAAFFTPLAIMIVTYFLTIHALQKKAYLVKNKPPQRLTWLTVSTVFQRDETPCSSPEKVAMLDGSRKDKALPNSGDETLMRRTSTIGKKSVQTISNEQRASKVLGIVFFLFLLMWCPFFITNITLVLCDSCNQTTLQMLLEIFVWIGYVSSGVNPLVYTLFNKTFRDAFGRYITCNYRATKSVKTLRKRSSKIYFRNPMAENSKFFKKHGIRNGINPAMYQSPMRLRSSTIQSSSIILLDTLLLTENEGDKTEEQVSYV
For assay [6], the target named is T4, 5-hydroxytryptamine receptor 2B. The assay is classed as functional, cell-based. This is another data set of the same source.
The target in assay [7] is Muscarinic acetylcholine receptor M3 (Homo sapiens, UniProt P20309).
The target of assay [8] is Growth hormone secretagogue receptor type 1 (Homo sapiens, UniProt Q92847).
Sequence of Growth hormone secretagogue receptor type 1 (Q92847 whole entry): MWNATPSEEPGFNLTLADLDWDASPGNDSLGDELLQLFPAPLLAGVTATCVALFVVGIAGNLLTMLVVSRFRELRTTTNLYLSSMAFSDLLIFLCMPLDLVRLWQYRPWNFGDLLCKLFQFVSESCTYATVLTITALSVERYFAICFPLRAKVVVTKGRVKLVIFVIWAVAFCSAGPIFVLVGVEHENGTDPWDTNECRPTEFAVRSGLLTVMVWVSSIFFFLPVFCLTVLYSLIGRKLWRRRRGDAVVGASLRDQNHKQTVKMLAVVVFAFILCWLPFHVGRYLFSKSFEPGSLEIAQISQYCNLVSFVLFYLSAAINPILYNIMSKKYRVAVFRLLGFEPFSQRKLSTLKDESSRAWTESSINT
Assay [9] deals with T5, Alpha-2C adrenergic receptor (Homo sapiens, UniProt P18825).
T5 sequence (P18825 whole entry): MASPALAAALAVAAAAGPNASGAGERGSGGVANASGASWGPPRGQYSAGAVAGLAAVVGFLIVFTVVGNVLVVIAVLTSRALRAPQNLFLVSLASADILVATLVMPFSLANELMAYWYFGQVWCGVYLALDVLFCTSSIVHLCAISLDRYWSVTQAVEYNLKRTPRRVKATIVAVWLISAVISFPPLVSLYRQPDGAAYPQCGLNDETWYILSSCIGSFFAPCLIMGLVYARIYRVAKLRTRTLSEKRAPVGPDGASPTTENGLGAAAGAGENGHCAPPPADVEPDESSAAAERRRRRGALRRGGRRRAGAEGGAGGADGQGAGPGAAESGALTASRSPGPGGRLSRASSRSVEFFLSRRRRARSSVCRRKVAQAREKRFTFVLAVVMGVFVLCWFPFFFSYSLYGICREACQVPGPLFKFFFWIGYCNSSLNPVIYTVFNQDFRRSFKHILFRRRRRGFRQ
The assay is classed as functional.
Further: assay procedure not described here.

Sequence of Histamine H3 receptor (Q9Y5N1 whole entry): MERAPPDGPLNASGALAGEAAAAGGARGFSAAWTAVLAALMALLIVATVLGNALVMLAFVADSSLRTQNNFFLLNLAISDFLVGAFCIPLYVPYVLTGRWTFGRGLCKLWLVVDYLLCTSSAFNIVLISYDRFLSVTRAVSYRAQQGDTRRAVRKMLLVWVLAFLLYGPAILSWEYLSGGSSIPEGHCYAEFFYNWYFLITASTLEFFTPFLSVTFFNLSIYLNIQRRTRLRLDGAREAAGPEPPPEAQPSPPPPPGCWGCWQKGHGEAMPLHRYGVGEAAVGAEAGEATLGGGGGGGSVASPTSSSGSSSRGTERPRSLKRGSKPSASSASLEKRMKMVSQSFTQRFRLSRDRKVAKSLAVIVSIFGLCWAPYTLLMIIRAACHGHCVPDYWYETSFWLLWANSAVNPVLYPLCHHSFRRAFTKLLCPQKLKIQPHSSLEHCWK
Sequence of Vasopressin V1a receptor (P37288 whole entry): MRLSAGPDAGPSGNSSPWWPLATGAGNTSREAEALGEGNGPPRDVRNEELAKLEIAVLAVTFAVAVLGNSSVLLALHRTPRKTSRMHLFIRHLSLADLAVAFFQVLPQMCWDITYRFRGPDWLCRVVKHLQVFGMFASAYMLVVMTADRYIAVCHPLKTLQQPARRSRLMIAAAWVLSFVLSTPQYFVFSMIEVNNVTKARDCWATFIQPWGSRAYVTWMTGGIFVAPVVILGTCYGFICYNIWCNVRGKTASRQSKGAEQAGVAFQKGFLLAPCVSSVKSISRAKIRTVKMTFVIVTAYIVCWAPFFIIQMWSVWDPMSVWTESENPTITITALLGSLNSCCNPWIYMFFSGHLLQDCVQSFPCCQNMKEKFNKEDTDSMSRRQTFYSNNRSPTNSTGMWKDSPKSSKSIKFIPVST
Sequence of Adenosine receptor A2a (P29274 whole entry): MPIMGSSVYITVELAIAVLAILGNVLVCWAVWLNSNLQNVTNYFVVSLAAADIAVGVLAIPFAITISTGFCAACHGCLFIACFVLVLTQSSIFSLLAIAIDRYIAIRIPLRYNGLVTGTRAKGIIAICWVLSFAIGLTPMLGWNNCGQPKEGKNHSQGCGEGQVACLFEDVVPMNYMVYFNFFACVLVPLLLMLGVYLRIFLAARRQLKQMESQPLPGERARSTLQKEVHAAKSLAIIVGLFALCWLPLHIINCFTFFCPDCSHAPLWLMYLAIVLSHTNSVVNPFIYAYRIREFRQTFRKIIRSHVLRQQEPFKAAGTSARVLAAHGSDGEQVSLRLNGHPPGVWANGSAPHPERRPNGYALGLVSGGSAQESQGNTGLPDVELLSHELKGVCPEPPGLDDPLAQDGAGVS
Sequence of Histamine H1 receptor (P35367 whole entry): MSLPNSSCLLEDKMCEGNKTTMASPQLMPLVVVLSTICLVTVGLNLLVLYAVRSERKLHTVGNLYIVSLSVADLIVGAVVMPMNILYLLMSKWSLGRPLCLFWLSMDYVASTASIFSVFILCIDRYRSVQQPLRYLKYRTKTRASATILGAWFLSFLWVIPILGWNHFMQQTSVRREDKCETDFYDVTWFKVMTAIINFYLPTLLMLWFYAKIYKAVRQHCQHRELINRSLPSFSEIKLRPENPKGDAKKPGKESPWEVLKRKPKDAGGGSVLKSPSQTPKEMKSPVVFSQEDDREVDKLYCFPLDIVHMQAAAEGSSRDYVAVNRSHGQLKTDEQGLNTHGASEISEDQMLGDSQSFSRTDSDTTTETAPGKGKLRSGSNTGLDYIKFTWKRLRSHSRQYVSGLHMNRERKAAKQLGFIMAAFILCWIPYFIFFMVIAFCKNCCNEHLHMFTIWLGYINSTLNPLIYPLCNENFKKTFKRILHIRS
Sequence of Vasopressin V2 receptor (P30518 whole entry): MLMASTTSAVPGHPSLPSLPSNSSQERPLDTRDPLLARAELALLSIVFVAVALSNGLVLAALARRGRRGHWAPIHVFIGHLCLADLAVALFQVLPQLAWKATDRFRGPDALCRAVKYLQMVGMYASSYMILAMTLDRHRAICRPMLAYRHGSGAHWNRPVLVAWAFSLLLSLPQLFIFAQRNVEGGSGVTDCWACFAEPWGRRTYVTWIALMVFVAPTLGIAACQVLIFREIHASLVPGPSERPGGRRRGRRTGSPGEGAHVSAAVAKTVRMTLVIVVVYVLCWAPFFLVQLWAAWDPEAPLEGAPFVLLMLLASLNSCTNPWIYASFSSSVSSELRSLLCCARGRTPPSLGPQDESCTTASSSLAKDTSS
Sequence of Mu-type opioid receptor (P35372 whole entry): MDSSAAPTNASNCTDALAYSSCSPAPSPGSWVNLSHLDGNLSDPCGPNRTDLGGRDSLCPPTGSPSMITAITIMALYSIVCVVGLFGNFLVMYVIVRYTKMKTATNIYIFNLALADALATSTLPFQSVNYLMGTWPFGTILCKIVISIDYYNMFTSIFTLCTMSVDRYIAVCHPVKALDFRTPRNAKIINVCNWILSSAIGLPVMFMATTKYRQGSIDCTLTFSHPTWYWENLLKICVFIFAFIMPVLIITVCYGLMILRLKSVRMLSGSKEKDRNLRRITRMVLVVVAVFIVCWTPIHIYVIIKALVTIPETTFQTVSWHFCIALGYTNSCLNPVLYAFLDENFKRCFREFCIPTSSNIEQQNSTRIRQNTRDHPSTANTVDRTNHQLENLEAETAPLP

With `O=C(O)C1=C(CSc2nnnn2CS(=O)(=O)O)CS[C@@H]2[C@H](NC(=O)[C@H](O)c3ccccc3)C(=O)N12` [CEFONICID], the AC50 (in assay [1]; in assay [2]; on Mu-type opioid receptor; on Histamine H3 receptor; on Vasopressin V1a receptor; in assay [3]) was more than 30 µM throughout. The AC50 (in [4]; on Histamine H1 receptor; on B2 bradykinin receptor; on Adenosine receptor A1; in assay [5]; at Vasopressin V2 receptor) was more than 30 µM each time. Also, the half-maximal activity concentration (AC50) (at Adenosine receptor A2a; in [6]; in assay [7]; in assay [8]; in assay [9]) was more than 30 µM throughout.
For the compound `Cc1cc(O)c(C(=O)N[C@@H](C(=O)N[C@@H]2C(=O)N3C(C(=O)O)=C(CSc4nnnn4C)CS[C@H]23)c2ccc(O)cc2)cn1` [CEFPIRAMIDE], the AC50 (in [1]; in assay [2]; on Mu-type opioid receptor; at Histamine H3 receptor; on Vasopressin V1a receptor; in assay [3]) was more than 30 µM throughout. The half-maximal activity concentration (AC50) (in [4]; on Histamine H1 receptor; on B2 bradykinin receptor; on Adenosine receptor A1; in assay [5]; on Vasopressin V2 receptor) was more than 30 µM in each case. The AC50 (at Adenosine receptor A2a; in assay [6]; in assay [7]; in assay [8]; in assay [9]) was more than 30 µM throughout.
For the compound `COC(=O)C1=C(C)NC(C)=C(C(=O)OC(C)(C)CN(C)CCC(c2ccccc2)c2ccccc2)C1c1cccc([N+](=O)[O-])c1` (stereo unspecified) [LERCANIDIPINE], the AC50 is more than 30 µM in [1]; more than 30 µM in assay [2]; more than 30 µM on Mu-type opioid receptor; more than 30 µM at Vasopressin V1a receptor; more than 30 µM in assay [3]; 3.8 µM in assay [4]. Further, the AC50 at Histamine H1 receptor was 6.4 µM; at B2 bradykinin receptor, more than 30 µM; at Adenosine receptor A1 it was more than 30 µM; in [5], more than 30 µM; at Vasopressin V2 receptor it was more than 30 µM; on Adenosine receptor A2a it was more than 30 µM. The AC50 in assay [6], in assay [7], in [8] and in [9] was more than 30 µM in each case.
For the compound `CC(Oc1c(Cl)cccc1Cl)C1=NCCN1` (stereo unspecified) [LOFEXIDINE], the AC50 was more than 30 µM in [2]; more than 30 µM at Mu-type opioid receptor; more than 30 µM on Histamine H3 receptor; more than 30 µM on Vasopressin V1a receptor; more than 30 µM in assay [3]; 22 µM in assay [4]. Moreover, the AC50 (on Histamine H1 receptor; on B2 bradykinin receptor; at Adenosine receptor A1; in [5]; on Vasopressin V2 receptor; at Adenosine receptor A2a) was more than 30 µM in each case. Moreover, the AC50 is more than 30 µM in assay [6], more than 30 µM in [7], more than 30 µM in assay [8] and 0.42 µM in [9].
Consider `Cc1cccc(C(C)c2cnc[nH]2)c1C` (stereo unspecified) [MEDETOMIDINE], for which the AC50 in [2] was more than 10 µM; on Mu-type opioid receptor, more than 30 µM; on Histamine H3 receptor, more than 30 µM; at Vasopressin V1a receptor, more than 30 µM; in assay [3], more than 30 µM; in assay [4], more than 30 µM. Besides, the AC50 (on Histamine H1 receptor; at B2 bradykinin receptor; at Adenosine receptor A1; in [5]; on Vasopressin V2 receptor; at Adenosine receptor A2a) was more than 30 µM throughout. In addition, the AC50 in assay [6] is more than 30 µM; in assay [7], more than 30 µM; in [8], more than 30 µM; in [9] it was 1.3 µM.
As for `C[C@H](N)[C@H](O)c1cccc(O)c1` [METARAMINOL], the AC50 was more than 10 µM in [1]; more than 10 µM in assay [2]; more than 30 µM at Mu-type opioid receptor; more than 10 µM at Vasopressin V1a receptor; more than 10 µM in [3]; more than 10 µM in assay [4]. For the same compound, the AC50 at Histamine H1 receptor is more than 10 µM; on B2 bradykinin receptor, more than 10 µM; at Adenosine receptor A1, more than 10 µM; in assay [5], 7.4 µM; on Vasopressin V2 receptor, more than 10 µM; on Adenosine receptor A2a, more than 10 µM. The AC50 is 12 µM in assay [6], more than 30 µM in assay [7], more than 10 µM in [8] and more than 10 µM in [9].
Regarding `C#C[C@]1(O)CC[C@H]2[C@@H]3CCc4cc(OC5CCCC5)ccc4[C@H]3CC[C@@]21C` [QUINESTROL], the half-maximal activity concentration (AC50) is more than 10 µM in assay [1]; more than 10 µM in [2]; more than 30 µM at Mu-type opioid receptor; more than 10 µM on Vasopressin V1a receptor; more than 10 µM in assay [3]; more than 10 µM in assay [4]. Besides, the concentration at half-maximal activity (AC50) (at Histamine H1 receptor; at B2 bradykinin receptor; on Adenosine receptor A1; in assay [5]; on Vasopressin V2 receptor; on Adenosine receptor A2a) was more than 10 µM each time. The AC50 is more than 10 µM in assay [6], more than 30 µM in assay [7], more than 10 µM in assay [8] and more than 10 µM in [9].
Consider `COC(=O)[C@H]1[C@H]2C[C@@H]3c4[nH]c5cc(OC)ccc5c4CCN3C[C@H]2C[C@@H](OC(=O)/C=C/c2cc(OC)c(OC)c(OC)c2)[C@@H]1OC` [RESCINNAMINE], for which the AC50 in assay [1] was more than 10 µM; in assay [2], more than 10 µM; on Mu-type opioid receptor, more than 30 µM; on Vasopressin V1a receptor it was more than 10 µM; in [3], more than 30 µM; in [4], more than 30 µM. Moreover, the AC50 at Histamine H1 receptor is more than 10 µM; on B2 bradykinin receptor, more than 10 µM; on Adenosine receptor A1, more than 30 µM; in assay [5], more than 10 µM; at Vasopressin V2 receptor, more than 10 µM; at Adenosine receptor A2a it was more than 30 µM. Further, the AC50 in [6] is more than 10 µM; in assay [7], more than 30 µM; in assay [8], more than 10 µM; in assay [9], more than 10 µM.
For the compound `C[C@H](CSC(=O)c1ccccc1)C(=O)N1C[C@@H](Sc2ccccc2)C[C@H]1C(=O)O` [ZOFENOPRIL], the AC50 in [1] is more than 10 µM; in [2] it was more than 10 µM; on Mu-type opioid receptor, more than 30 µM; at Vasopressin V1a receptor, more than 10 µM; in assay [3], more than 10 µM; in [4], more than 10 µM. The AC50 (at Histamine H1 receptor; at B2 bradykinin receptor; on Adenosine receptor A1; in assay [5]; on Vasopressin V2 receptor; on Adenosine receptor A2a) was more than 10 µM throughout. The half-maximal activity concentration (AC50) is more than 10 µM in assay [6], more than 30 µM in [7], more than 10 µM in assay [8] and more than 10 µM in assay [9].
